According to patent US20120264827A1, “SULFANYLAMIDE DERIVATIVES, USES THEREOF AND COMPOSITIONS COMPRISING THEM” (YISSUM RESEARCH DEVELOPMENT COMPANY OF THE HEBREW …, priority 2009, published 2012):
Where two headings read alike, the source gives them in different places.

Key:
[1] = test system: rats; assay: Neurotoxicity, median neurotoxic dose (TD50), rats, oral; conditions: rats dosed orally
Method: (§1) The tested compounds were suspended in 0.5% methylcellulose and administered (a) intraperitioneally (ip) to adult male CF no. 1 albino mice (18-25 g) in volume of 0.01 mL/g body weight and (b) orally to adult male Sprague-Dawley albino rats (100-150 g) in volume of 0.04 mL per 10 g of body weight.
(§2) The TD50 was determined by varying the dose of the tested compounds until four points were established between the dose level that induced no signs of minimal motor impairment in any of the animals and the dose at which all the animals were considered impaired. […] The PIs were calculated by dividing the TD50 by the ED50.

[2] = test system: maximal electroshock seizure (MES); conditions: cited from earlier work
[3] = test system: maximal electroshock seizure (MES); assay: Maximal electroshock seizure test (MES), mice, intraperitoneal; assay type: in vivo; conditions: ip;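 also: adult male CF no. 1 albino mice of 18–25 g, given compound intraperitoneally as a 0.5% methylcellulose suspension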
[4] = in vivo; conditions: male, Sprague-Dawley, rat, po
Method: as §1, §2

[5] = test system: maximal electroshock seizure (MES); assay: Maximal electroshock seizure test (MES), rats, oral; conditions: Rattus norvegicus, po; for responders at 30 mg/kg: read-out: Anti-MES activity (number of animals protected/number of animals tested); for ED50: read-out: MES ED50, rats dosed orally, interval in parentheses = 95% confidence interval;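 as to all read-outs here: adult male Sprague-Dawley rats received test compounds by mouth as a suspension in 0.5% methylcellulose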
Method: as §1, §2

[6] = test system: subcutaneous metrazol (pentylenetetrazol) seizure; assay: Subcutaneous metrazol seizure threshold test (scMet), mice, intraperitoneal; assay type: in vivo; conditions: ip;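 also: adult male CF no. 1 albino mice weighing 18-25 g, dosed intraperitoneally with compounds suspended in 0.5% methylcellulose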
[7] = test system: subcutaneous metrazol (pentylenetetrazol) seizure; assay: animal or person; conditions: Rattus norvegicus, po, read-out: scMet ED50
Method: (§3) The evaluation of the anticonvulsant activity in the maximal electroshock seizure test (MES) and subcutaneous metrazol seizure threshold test (scMet) and the determination of neurotoxicity in the rotorod test, positional sense test, and others were performed according to the protocols described in White, H. S., Woodhead J. H., Wilcox K. S., Stables J. P., Kupferberg H. J., Wolf H. H., Discovery and Preclinical Development of Antiepileptic Drugs; 5th ed.; Lippincott Williams &Wilkins: New york, 2002; 36-48.
(§4) The tested compounds were suspended in 0.5% methylcellulose and administered (a) intraperitioneally (ip) to adult male CF no. 1 albino mice (18-25 g) in volume of 0.01 mL/g body weight and (b) orally to adult male Sprague-Dawley albino rats (100-150 g) in volume of 0.04 mL per 10 g of body weight. The pentylenetetrazol solution at convulsing dose was prepared by sufficient dissolution of pentylenetetrazol in 0.9% saline to make 0.85% solution for administration to mice and a 2.82% solution for administration to rats.
as §2

[8] = test system: maximal electroshock seizure (MES); conditions: male, Sprague-Dawley, rat, in vivo, po
Method: as §1, §2

[9] = test system: subcutaneous metrazol (pentylenetetrazol) seizure; conditions: male, Sprague-Dawley, rat, in vivo, po
Method: as §3, §4, §2

[10] = test system: maximal electroshock seizure (MES); conditions: rats, cited from earlier work; for PI (TD50/ED50) in rat MES test: reference or literature compound
[11] = test system: subcutaneous metrazol (pentylenetetrazol) seizure; conditions: reference AED; species not stated; cited from earlier work
[12] = 30 mg/kg, 0.5 h after administration
[13] = 30 mg/kg, 4 h after administration
[14] = 100 mg/kg, 0.5 h after administration
[15] = 100 mg/kg, 4 h after administration
[16] = 300 mg/kg, 0.5 h after administration
[17] = 300 mg/kg, 4 h after administration

## CCCC(CCC)C(=O)O [VPA, 2-propylpentanoic acid]
[1]
  TD50 (neurotoxicity): 784 mg/kg

## CCCC(CCC)C(=O)Nc1ccc(S(N)(=O)=O)cc1 [Compound 6, 4-(valproylamido)-benzenesulfonamide]
[2]; mice, previous studies
  mice-MES test ED50: 21 mg/kg

## CC1(C)C(C(=O)Nc2ccc(S(N)(=O)=O)cc2)C1(C)C [Compound 7, 4-(2,2,3,3-tetramethylcyclopropanecarboxamido)-benzenesulfon amide]
[2]; MES test in mice and rats, previously synthesized by the inventors
  MES test ED50: 26 mg/kg

## CCCCC(CC)C(=O)Nc1ccc(S(N)(=O)=O)cc1 (centres unmarked) [Compound 25, 2-Ethyl-N-(4-sulfamoyl-phenyl)-hexanamide]
[3]; [12]
  MES (number of animals protected/number of animals tested): 0/1
[3]; [13]
  MES (number of animals protected/number of animals tested): 0/1
[3]; [14]
  MES (number of animals protected/number of animals tested): 3/3
[3]; [15]
  MES (number of animals protected/number of animals tested): 3/3
[3]; [16]
  MES (number of animals protected/number of animals tested): 1/1
[3]; [17]
  MES (number of animals protected/number of animals tested): 1/1
[4]
  TD50: > 500 mg/kg
other
  melting point: 188 to 190 °C
[5]; 0.5 h
  responders at 30 mg/kg: 0%
[5]; 1 h
  responders at 30 mg/kg: 100%
[5]; 2 h
  responders at 30 mg/kg: 75%
[5]; 4 h
  responders at 30 mg/kg: 100%
[5]; […]
  responders at 30 mg/kg: 0%
[5]
  ED50: 23.9 mg/kg
[6]; [12]
  scMet (number of animals protected/number of animals tested): 0/1
[6]; [13]
  scMet (number of animals protected/number of animals tested): 0/1 0/1 0/1
[6]; [14]
  scMet (number of animals protected/number of animals tested): 2/5
[6]; [15]
  scMet (number of animals protected/number of animals tested): 0/1 0/1 0/1
[6]; [16]
  scMet (number of animals protected/number of animals tested): 3/5
[6]; [17]
  scMet (number of animals protected/number of animals tested): 0/1 0/1 0/1
[7]
  ED50: > 250 mg/kg
[8]
  PI, protective index (PI = TD50/ED50) in the MES test: >21.0
[9]
  PI, protective index (PI = TD50/ED50) in the scMet test: >2

## CCCC(C(=O)Nc1ccc(S(N)(=O)=O)cc1)C(C)C (centres unmarked) [Compound 18, 2-Isopropyl-N-(4-sulfamoyl-phenyl)-pentanamide]
[3]; [12]
  MES (number of animals protected/number of animals tested): 0/1
[3]; [13]
  MES (number of animals protected/number of animals tested): 0/1
[3]; [14]
  MES (number of animals protected/number of animals tested): 0/3
[3]; [15]
  MES (number of animals protected/number of animals tested): 2/3
[3]; [16]
  MES (number of animals protected/number of animals tested): 1/1
[3]; [17]
  MES (number of animals protected/number of animals tested): 1/1
[4]
  TD50: > 500 mg/kg
other
  melting point: 217 to 219 °C
[5]; 0.5 h
  responders at 30 mg/kg: 0%
[5]; 1 h
  responders at 30 mg/kg: 100%
[5]; 2 h
  responders at 30 mg/kg: 75%
[5]; 4 h
  responders at 30 mg/kg: 50%
[5]; […]
  responders at 30 mg/kg: 0%
[5]
  ED50: 41.5 mg/kg
[6]; [12]
  scMet (number of animals protected/number of animals tested): 0/1 0/1 0/1
[6]; [13]
  scMet (number of animals protected/number of animals tested): 0/1 0/1 0/1
[6]; [14]
  scMet (number of animals protected/number of animals tested): 0/1 0/1 0/1
[6]; [15]
  scMet (number of animals protected/number of animals tested): 0/1 0/1 0/1
[6]; [16]
  scMet (number of animals protected/number of animals tested): 0/1 0/1 0/1
[6]; [17]
  scMet (number of animals protected/number of animals tested): 0/1 0/1 0/1
[7]
  ED50: > 250 mg/kg
[8]
  PI, protective index (PI = TD50/ED50) in the MES test: >12.0
[9]
  PI, protective index (PI = TD50/ED50) in the scMet test: >2

## CC1(C)C(C(=O)Nc2nnc(S(N)(=O)=O)s2)C1(C)C [5-(2,2,3,3-tetramethylcyclopropanecarboxamide)-1,3,4-thiamidazole-2-sulfonamide]
[10]
  PI (TD50/ED50) in rat MES test: above 50

## NS(=O)(=O)Cc1noc2ccccc12 [Zonisamide]
[11]
  anticonvulsant activity in the scMet test: does not display anticonvulsant activity
[10]; reference AED
  Rat-MES test ED50: 21 mg/kg
[10]
  PI (TD50/ED50) in rat MES test: 9.1
